Some results are limits rather than exact numbers.

The results in this text go back to patent US20040248887A1, “Inhibitors of cathepsin S” (IRM LLC, priority 2003, published 2004).

Cathepsin S, sequence (P25774 115-331, species assumed): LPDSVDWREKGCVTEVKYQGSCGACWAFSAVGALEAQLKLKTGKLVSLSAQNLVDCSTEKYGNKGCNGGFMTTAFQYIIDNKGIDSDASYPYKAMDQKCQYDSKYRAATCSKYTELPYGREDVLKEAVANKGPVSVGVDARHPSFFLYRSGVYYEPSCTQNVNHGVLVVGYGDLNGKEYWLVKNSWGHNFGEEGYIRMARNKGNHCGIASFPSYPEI

This test addresses Cathepsin S (Homo sapiens, UniProt P25774). The test is described as follows: Cathepsin S inhibition, fluorogenic peptide substrate kinetic assay. It counts as biochemical. The conditions noted are these: Table II; Cathepsin S inhibition constant, pH5.5; read-out: Ki Cat. S. The text has this: “Inhibition constant”, Ki, is the dissociation constant of the enzyme-inhibitor complex, or the reciprocal of the binding affinity of the inhibitor to the enzyme. […] The inhibited rates are then fit by nonlinear regression to the following equation: [formula]
where vo is the initial rate of substrate processing in the absence of inhibitor, v; is the initial rate of substrate processing at a concentration [I] of inhibitor, Km is the steady state Michaelis constant (Fersht, A. Structure and Mechanism in Protein Science. New York, W.H. Freeman and Company, 1999), and [S] is the concentration of competitive substrate.
The assumption being made for the classical inhibition described above is that the free inhibitor concentration is equal to the total inhibitor concentration.
The inhibition constant, Ki, can be determined from the apparent inhibition constant, Ki^app, for competitive inhibitors by using the following relationship: [formula]
The optimal substrate for cathepsin S, acetyl-histidine-proline-valine-lysine-amino carbamoyl coumarin, was identified from screening a combinatorial library of fluorogenic peptide substrates (Harris, J. L., B. J. Backes, et al., Proc Natl Acad Sci USA 2000, 97(14), 7754-9). Kinetic measurements are performed in a total reaction volume of 30 μl in 384-well microtiter plates. […] The reactions are initiated by adding the substrate, acetyl-histidine-proline-valine-lysine-amino carbamoyl coumarin, to a final concentration of 50 μM. The rate of substrate hydrolysis is measured by monitoring the increase in fluorescence at an excitation wavelength of 380 nm and an emission wavelength of 450 nm that results from cleavage of the aniline bond in the substrate by the enzyme. The apparent inhibition constants for the compounds are determined from the enzyme progress curves (Kuzmic, P., K. C. Elrod, et al., Anal Biochem 2000, 286(1), 45-50) and are then used to calculate the inhibition constants for competitive inhibitors.
For `COc1ccc(NC[C@H](C)NC(=O)[C@H](CCC2CCCCC2)NC(=O)c2ccc(-c3cccc(C(F)(F)F)c3)o2)cc1` [Compound 27, 5-(3-Trifluoromethyl-phenyl)-furan-2-carboxylic acid {3-cyclohexyl-(1S)-[2-(4-methoxy-phenylamino)-(1S)-methyl-ethylcarbamoyl]-propyl}-amide], the Ki (commonly the equilibrium dissociation constant of an inhibitor or competing ligand from its target) is less than 100 nM.

For `Cc1cc(NC[C@H](C)NC(=O)[C@H](CC2CCCCC2)NC(=O)c2ccc(-c3cccc(F)c3)o2)no1` [Compound 133, 5-(3-Fluoro-phenyl)-furan-2-carboxylic acid {2-cyclohexyl-1-(S)-[1-(S)-methyl-2-(5-methyl-isoxazol-3-ylamino)-ethylcarbamoyl]-ethyl}-amide], the Ki was less than 1000 nM.

Take `Cc1cccc(C(=O)N[C@@H](CC(C)C)C(=O)N[C@@H](CCC(=O)OCc2ccccc2)CN2CCc3cc(F)ccc32)c1` [Compound 42, (S,S)-5-(5-Fluoro-2,3-dihydro-indol-1-yl)-4-[4-methyl-2-(3-methyl-benzoylamino)-pentanoylamino]-pentanoic acid benzyl ester]: the inhibitory constant (Ki) was less than 100 nM.

For the compound `COc1ccc(NC(C)CNC(=O)[C@H](CC(C)C)NC(=O)c2cccc(C)c2)cc1` (mixture of isomers) [Compound 20, N-{1-(S)-[2-(4-Methoxy-phenylamino)-propylcarbamoyl]-3-methyl-butyl}-3-methyl-benzamide], the Ki is less than 10000 nM.

For the compound `COc1cccc(C(=O)N[C@@H](CCC2CCCCC2)C(=O)NCCN2CCc3c(OC)cccc32)c1` [Compound 15, (S)-N-{3-Cyclohexyl-1-[2-(4-methoxy-2,3-dihydro-indol-1-yl)-ethylcarbamoyl]-propyl}-3-methoxy-benzamide], the Ki is less than 10000 nM.

With `C[C@@H](CN1CCc2cc(F)ccc21)NC(=O)[C@H](CC1CCCCC1)NS(=O)(=O)c1cccc(Cl)c1` [Compound 259, (S,S)-2-(3-Chloro-benzenesulfonylamino)-3-cyclohexyl-N-[2-(5-fluoro-2,3-dihydro-indol-1-yl)-1-methyl-ethyl]-propionamide], the inhibitory constant (Ki) is less than 100 nM.

As to `C[C@@H](CN1CCc2cc(F)ccc21)NC(=O)[C@H](CC(C)(C)C)NC(=O)OCc1ccccc1` [Compound 176, {1-(S)-[2-(5-Fluoro-2,3-dihydro-indol-1-yl)-1-(S)-methyl-ethylcarbamoyl]-3,3-dimethyl-butyl}-carbamic acid benzyl ester], the inhibition constant Ki is less than 100 nM.

`COc1cccc(C(=O)N[C@@H](CCC2CCCCC2)C(=O)NCCN2CCc3cccc(OC)c32)c1` [Compound 8, (S)-N-{3-Cyclohexyl-1-[2-(7-methoxy-2,3-dihydro-indol-1-yl)-ethylcarbamoyl]-propyl}-3-methoxy-benzamide]: the Ki was less than 10000 nM.

Consider `COc1cc(COC[C@@H](CN2CCc3cc(F)ccc32)NC(=O)[C@H](CCC2CCCCC2)NC(=O)c2cccc(OC)c2)cc(OC)c1` [Compound 170, N-{3-Cyclohexyl-1-(S)-[2-(3,5-dimethoxy-benzyloxy)-1-(R)-(5-fluoro-2,3-dihydro-indol-1-ylmethyl)-ethylcarbamoyl]-propyl}-3-methoxy-benzamide], for which the inhibition constant Ki is less than 100 nM.

As for `Cc1cccc(C(=O)N[C@@H](Cc2ccccc2Cl)C(=O)NCCN2CCc3cc(F)ccc32)c1` [Compound 195, N-((S)-1-(2-(5-fluoroindolin-1-yl)ethylcarbamoyl)-2-(2-chlorophenyl)ethyl)-3-methylbenzamide], the inhibition constant (Ki) is less than 1000 nM.

As to `O=C(NC(C(=O)N[C@@H](CO)CN1CCc2cc(F)ccc21)c1ccc(Cl)cc1Cl)c1ccc(F)c(F)c1` (mixture of isomers) [Compound 208, N-(R,S)-((3-(5-fluoroindolin-1-yl)-1-hydroxypropan-2-(R)-ylcarbamoyl)(2,4-dichlorophenyl)methyl)-3,4-difluorobenzamide], the Ki was less than 100 nM.

Take `C[C@@H](CNc1ccc(OC(F)F)cc1)NC(=O)[C@H](CC1CCCCC1)NC(=O)c1ccc(-c2ccc(F)cc2)o1` [Compound 104, 5-(4-Fluoro-phenyl)-furan-2-carboxylic acid {2-cyclohexyl-1-(S)-[2-(4-difluoromethoxy-phenylamino)-1-(S)-methyl-ethylcarbamoyl]-ethyl}-amide]: the inhibition constant Ki was less than 100 nM.

For `COc1cccc(C(=O)N[C@@H](CC(C)(C)C)C(=O)N[C@@H](COCc2ccccc2)CN2CCc3cc(F)ccc32)c1` [Compound 155, N-{1-(S)-[1-(R)-Benzyloxymethyl-2-(5-fluoro-2,3-dihydro-indol-1-yl)-ethylcarbamoyl]-3,3-dimethyl-butyl}-3-methoxy-benzamide], the inhibition constant Ki was less than 100 nM.

Regarding `O=C(NCCN1CCc2cc(F)ccc21)[C@H](CC1CCCCC1)NS(=O)(=O)c1ccsc1` [Compound 248, (S)-3-Cyclohexyl-N-[2-(5-fluoro-2,3-dihydro-indol-1-yl)-ethyl]-2-(thiophene-3-sulfonylamino)-propionamide], the inhibition constant Ki is less than 1000 nM.

As to `Cc1nc(-c2ccc(S(=O)(=O)N[C@@H](CC3CCCCC3)C(=O)NCCN3CCc4cc(F)ccc43)s2)cs1` [Compound 237, (S)-3-Cyclohexyl-N-[2-(5-fluoro-2,3-dihydro-indol-1-yl)-ethyl]-2-[5-(2-methyl-thiazol-4-yl)-thiophene-2-sulfonylamino]-propionamide], the inhibition constant (Ki) was less than 100 nM.

Consider `CC(=O)Nc1nc(C)c(S(=O)(=O)N[C@@H](CC2CCCCC2)C(=O)NCCN2CCc3cc(F)ccc32)s1` [Compound 257, (S)-2-(2-Acetylamino-4-methyl-thiazole-5-sulfonylamino)-3-cyclohexyl-N-[2-(5-fluoro-2,3-dihydro-indol-1-yl)-ethyl]-propionamide], for which the Ki was less than 100 nM.

`COc1ccc(NC[C@H](COCc2ccccc2)NC(=O)[C@H](CC(C)C)NC(=O)c2cccc(C)c2)cc1` [Compound 35, N-{1-(S)-[1-(R)-Benzyloxymethyl-2-(4-methoxy-phenylamino)-ethylcarbamoyl]-3-methyl-butyl}-3-methyl-benzamide]: the Ki is less than 100 nM.

In the case of `C[C@@H](CNc1ccc(OC(F)(F)F)cc1)NC(=O)[C@H](CC1CCCCC1)NC(=O)OC1CCS(=O)(=O)CC1` [Compound 186, (S,S)-{2-Cyclohexyl-1-[1-methyl-2-(4-trifluoromethoxy-phenylamino)-ethylcarbamoyl]-ethyl}-carbamic acid 1,1-dioxo-hexahydro-1λ^6-thiopyran-4-yl ester], the Ki was less than 100 nM.

For the compound `C[C@@H](CNc1ccc(OC(F)(F)F)cc1)NC(=O)[C@H](CC1CCCCC1)NC(=O)[C@H]1CCCO1` [Compound 30, Tetrahydrofuran-2-(R)-carboxylic acid {2-cyclohexyl-1-(S)-[1-(S)-methyl-2-(4-trifluoromethoxy-phenylamino)-ethylcarbamoyl]-ethyl}-amide], the Ki was less than 100 nM.

Take “(S)-3-Cyclohexyl-N-[2-(5-fluoro-2,3-dihydro-indol-1-yl)-ethyl]-2-(5-methyl-1-phenyl-1H-pyrazole-4-sulfonylamino)-propionamide [Compound 222]”: the Ki was less than 1000 nM.

Consider `COc1cccc(C(=O)N[C@@H](CCC2CCCCC2)C(=O)NCCN2CCc3cc(C#N)ccc32)c1` [Compound 12, (S)-N-{3-Cyclohexyl-1-[2-(5-cyano-2,3-dihydro-indol-1-yl)-ethylcarbamoyl]-propyl}-3-methoxy-benzamide], for which the inhibition constant (Ki) was less than 10000 nM.

For `Cc1cccc(S(=O)(=O)N[C@@H](CC2CCCCC2)C(=O)NCCN2CCc3cc(F)ccc32)c1` [Compound 243, (S)-3-Cyclohexyl-N-[2-(5-fluoro-2,3-dihydro-indol-1-yl)-ethyl]-2-(toluene-3-sulfonylamino)-propionamide], the Ki was less than 100 nM.

For `C[C@@H](CNc1cccc(F)c1)NC(=O)[C@H](CC1CCCCC1)NC(=O)c1ccc(-c2cccc(F)c2)o1` [Compound 99, 5-(3-Fluoro-phenyl)-furan-2-carboxylic acid {2-cyclohexyl-1-(S)-[2-(3-fluoro-phenylamino)-1-(S)-methyl-ethylcarbamoyl]-ethyl}-amide], the inhibition constant Ki was less than 100 nM.

In the case of `CC(C)(C)OC(=O)N[C@@H](CC1CCCCC1)C(=O)N[C@@H](CC(=O)OCc1ccccc1)CN1CCc2cc(F)ccc21` [Compound 261, (S,S)-3-(2-tert-Butoxycarbonylamino-3-cyclohexyl-propionylamino)-4-(5-fluoro-2,3-dihydro-indol-1-yl)-butyric acid benzyl ester], the Ki was less than 100 nM.

For the compound `O=C(N[C@@H](CC1CCCCC1)C(=O)NCCN1CCc2cc(F)ccc21)c1csc(-c2ccccc2)n1` [Compound 76, 2-Phenyl-thiazole-4-carboxylic acid (S)-{2-cyclohexyl-1-[2-(5-fluoro-2,3-dihydro-indol-1-yl)-ethylcarbamoyl]-ethyl}-amide], the inhibition constant (Ki) was less than 100 nM.

For the compound `C[C@@H](C(=O)N[C@@H](CC1CCCCC1)C(=O)NCCN1CCc2cc(F)ccc21)c1ccccc1` [Compound 70, N-{2-cyclohexyl-1-(S)-[2-(5-fluoro-2,3-dihydro-indol-1-yl)-ethylcarbamoyl]-ethyl}-2-(R)-phenyl-propionamide], the inhibitory constant (Ki) is less than 100 nM.
